Values belong to the compound of their own block, whether it stands above or below them.
Experiments:
[1] = system: AP-1; assay: AP-1-luciferase reporter in IL-1α-stimulated rabbit articular cartilage tissue; assay type: cell-based; details: 10 μg/mL, 5 ng/mL rhIL-1α; for inhibition at 10 µg/mL: Oryctolagus cuniculus, AP1, luciferase activity
Protocol: (§1) A five-week-old rabbit was killed, from the hock joint of which the articular cartilage was then taken. The articular surface (200˜220 mg/joint) was placed in a complete medium (DMEM, supplemented with heat inactivated 5% FBS; penicillin 100 U/mL; streptomycin 100 μg/mL) under sterile conditions. It was washed three or four times and then incubated at 37° C. for about 1˜2 days under sterile conditions and under 5% CO2/95% air conditions, after which AP-1-luciferase or NFkB-luciferase reporter plasmid DNA (each 0.5 μg: Stratagene) was transfected into the incubated tissue using a Lipofectamin transfection reagent (Invitrogen, Carlsbad, Calif., U.S.A.). After 24 hours, the complete medium was exchanged with a basic medium (DMEM, supplemented with heat inactivated 1% FBS, 10 mM HEPES, penicillin 100 U/mL, streptomycin 100 μg/mL). […] After 1 hour, the culture medium of each group was treated with 5 ng/mL rhIL-1α (R&D systems, Minneapolis, USA). Then, the culture medium was incubated at […] under 5% CO2/95% air conditions for 60 hours, and then treated with a lysis buffer (0.1M potassium phosphate buffer, pH 7.8/1% Triton X-100/1 mM DTT/2 mM EDTA), and the luciferase activity in the culture medium was measured using a luminometer (Monolight 2010).

[2] = system: NF-kB; assay: NFkB-luciferase reporter in IL-1α-stimulated rabbit articular cartilage tissue; assay type: cell-based; details: 10 μg/mL, 5 ng/mL rhIL-1α
Protocol: as §1

[3] = system: arthritis induced rabbit; assay: External-use compositions in collagenase arthritis induced rabbit; assay type: in vivo; details: for Heating score / Limping score / Reddening score / Swelling score: score 0-3; for Max. Effect during Treatment: (total score 7th day − 14th day)/7th day; for Total Treatment Effect: (total score 7th day − 21st day)/7th day; for Healing Effect upon Discontinuation of Treatment: (total score 14th day − 21st day)/14th day
Protocol: The composition of a carrier used to absorb the active ingredient into the skin was made referring to Bookman et al (Can. Med. Assoc. J. 171(4) 333-338 (2004)).
In order to induce arthritis in the rabbit, six test groups were set up, and five rabbits were randomly assigned into each group. A collagenase solution (4 mg/mL, saline) was filtered with a 0.22 μm membrane. 2.5˜3.0 kg weighed rabbits assigned into six test groups were anesthetized with tiletamine-zolazepam (Zoletil 50, Virbac, France). The region around the right knee joint of each rabbit was shaved and disinfected, after which the articular cavity thereof was injected with 0.25 mL of saline in one test group and 0.25 mL of the collagenase solution in the other five test groups (Choi, et al. Osteoarthritis and Cartilage 10, 471-478 (2002)). […] This model has been adopted because it is similar to the degeneration of the cartilage tissue in the human degenerative arthritis.
From the 7th day, 0.3 mL of each of the external-use compositions of Table 3 was sufficiently applied two times per day for 7 days to the affected part of the five test groups treated with the collagenase solution, and no treatment was performed for the following 7 days in order to evaluate the fundamental healing effects. The swelling, reddening, heat and limping of the articular part were quantitatively evaluated on the day (0th day) immediately before collagenase treatment, the 7th day, the 14th day and the 21st day, using the evaluation criteria comprising 0 (normal), 1 (low), 2 (middle), 3 (high). In order to objectively evaluate the effects of respective treatment solutions, the total score at each evaluation was compared, and “maximum effect during treatment”, “total treatment effect”, “healing effect upon discontinuation of treatment” were calculated by the following equations.
(1) Maximum effect during treatment=(total score on 7th day−total score on 14th day)/total score on 7th day,
(2) Total treatment effect=(total score on 7th day−total score on 21st day)/total score on 7th day,
(3) Healing effect upon discontinuation of treatment=(total score on 14th day−total score on 21st day)/total score on 14th day.

[4] = 7th Day (before treatment), 1.5% active, 0.3 mL twice daily topical
[5] = 14th Day (end of 7-day treatment)
[6] = 21st Day (7 days after discontinuation)

SMILES: CC(=O)Oc1ccccc1C(=O)O [Aspirin, aspirin]
inhibition at 10 µg/mL [1]: 46% | NF-kB Activity Inhibition (%) [2]: 48% | Heating score ([3]; 7th Day (before treatment)): 3.0 ± 0.00 | Limping score ([3]; 7th Day (before treatment)): 2.8 ± 0.45 | Reddening score ([3]; 7th Day (before treatment)): 2.8 ± 0.45 | Swelling score [3, 4]: 3.0 ± 0.00 | Total Score ([3]; 14th Day): 6.0 ± 0.71 | Swelling score [3, 5]: 1.6 ± 0.55 | Heating score ([3]; 14th Day): 1.4 ± 0.55 | Limping score ([3]; 14th Day): 1.4 ± 0.55 | Reddening score ([3]; 14th Day): 1.6 ± 0.55 | Total Score ([3]; 21st Day): 5.0 ± 1.0 | Swelling score [3, 6]: 1.2 ± 0.45 | Heating score ([3]; 21st Day): 1.2 ± 0.45 | Limping score ([3]; 21st Day): 1.2 ± 0.45 | Reddening score ([3]; 21st Day): 1.4 ± 0.55 | Max. Effect during Treatment [3]: 48.3% | Total Treatment Effect [3]: 56.9% | Healing Effect upon Discontinuation of Treatment [3]: 16.7%

SMILES: Cc1ccc(-c2cc(C(F)(F)F)nn2-c2ccc(S(N)(=O)=O)cc2)cc1 [Celecoxib, celecoxib]
inhibition at 10 µg/mL [1]: 23% | NF-kB Activity Inhibition (%) [2]: 10%

SMILES: O=C([O-])Cc1ccccc1Nc1c(Cl)cccc1Cl.[Na+] [Dichlofenac Sodium]
Total Score ([3]; 7th Day (before treatment)): 11.4 ± 1.34 | Heating score ([3]; 7th Day (before treatment)): 2.8 ± 0.45 | Limping score ([3]; 7th Day (before treatment)): 3.0 ± 0.00 | Reddening score ([3]; 7th Day (before treatment)): 2.8 ± 0.45 | Swelling score [3, 4]: 2.8 ± 0.45 | Total Score ([3]; 14th Day): 5.8 ± 1.3 | Swelling score [3, 5]: 1.4 ± 0.55 | Heating score ([3]; 14th Day): 1.4 ± 0.55 | Limping score ([3]; 14th Day): 1.6 ± 0.55 | Reddening score ([3]; 14th Day): 1.4 ± 0.55 | Total Score ([3]; 21st Day): 5.4 ± 0.55 | Swelling score [3, 6]: 1.4 ± 0.55 | Heating score ([3]; 21st Day): 1.2 ± 0.45 | Limping score ([3]; 21st Day): 1.4 ± 0.55 | Reddening score ([3]; 21st Day): 1.4 ± 0.55 | Max. Effect during Treatment [3]: 49.1% | Total Treatment Effect [3]: 52.6% | Healing Effect upon Discontinuation of Treatment [3]: 6.9%

AP-1 Activity Inhibition (%) [1]: 34% | NF-kB Activity Inhibition (%) [2]: 32%
SMILES: O=C(O)Cc1ccccc1Nc1c(Cl)cccc1Cl [Dichlofenac, dichlofenac]

SMILES: CC(C)Cc1ccc(C(C)C(=O)O)cc1 (stereo not shown) [Ibuprofen, ibuprofen]
inhibition at 10 µg/mL [1]: 27% | NF-kB Activity Inhibition (%) [2]: 23%

SMILES: COc1ccc2c(c1)c(CC(=O)O)c(C)n2C(=O)c1ccc(Cl)cc1 [Indomethacin, indomethacin]
inhibition at 10 µg/mL [1]: 34%

SMILES: CC(C(=O)O)c1cccc(C(=O)c2ccccc2)c1 (stereo not shown) [Ketoprofen, ketoprofen]
inhibition at 10 µg/mL [1]: 22% | NF-kB Activity Inhibition (%) [2]: 12%
